Where two headings read alike, the source gives them in different places.
How the values were obtained:
Test in all cases: Test C pre/postemergence
Assay type in all cases: in vivo
[1] = tested on: soybean (Glycine max); conditions: Glycine max; for plant injury at 62 g/ha: 62 g ai/ha; for plant injury at 125 g/ha: 125 g ai/ha; for plant injury at 250 g/ha: 250 g ai/ha; for plant injury at 500 g/ha: 500 g ai/ha
In short: (§1)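 We sprayed seeded pots preemergence and 2–18 cm seedlings postemergence with test chemicals in a non-phytotoxic solvent mixture including surfactant. Greenhouse plants were visually compared with untreated controls at 12 to 14 days and scored 0 (no effect) to 100 (complete control).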

[2] = tested on: crabgrass (Digitaria sanguinalis); conditions: Digitaria sanguinalis; for pest or weed control at 62 g/ha: 62 g ai/ha; for pest or weed control at 125 g/ha: 125 g ai/ha; for pest or weed control at 250 g/ha: 250 g ai/ha; for pest or weed control at 500 g/ha: 500 g ai/ha
In short: as §1

[3] = tested on: eastern black nightshade (Solanum ptycanthum); conditions: Solanum, pre-emergence, Preemergence, read-out: Plant response rating, Nightshade
In short: as §1

[4] = tested on: morningglory (Ipomoea coccinea); conditions: Ipomoea; for pest or weed control at 62 g/ha: 62 g ai/ha; for pest or weed control at 125 g/ha: 125 g ai/ha; for pest or weed control at 250 g/ha: 250 g ai/ha; for pest or weed control at 500 g/ha: 500 g ai/ha
In short: as §1

[5] = tested on: johnsongrass (Sorghum halepense); conditions: Sorghum halepense; for pest or weed control at 62 g/ha: 62 g ai/ha; for pest or weed control at 125 g/ha: 125 g ai/ha; for pest or weed control at 250 g/ha: 250 g ai/ha; for pest or weed control at 500 g/ha: 500 g ai/ha
In short: as §1

[6] = tested on: kochia (Kochia scoparia); conditions: Bassia scoparia; for pest or weed control at 62 g/ha: 62 g ai/ha; for pest or weed control at 125 g/ha: 125 g ai/ha; for pest or weed control at 250 g/ha: 250 g ai/ha
In short: as §1

[7] = post-emergence, Postemergence, scale 0 to 100 (0 no effect, 100 complete control), read-out: Soybean plant response rating
[8] = post-emergence, Postemergence, scale 0 to 100, read-out: Plant response rating, Soybean
[9] = pre-emergence, Preemergence, scale 0 to 100, read-out: Plant response rating, Soybean
[10] = post-emergence, Postemergence, scale 0 to 100 (0 no effect, 100 complete control), read-out: Crabgrass plant response rating
[11] = post-emergence, Postemergence, scale 0 to 100, read-out: Plant response rating, Crabgrass
[12] = pre-emergence, Preemergence, scale 0 to 100, read-out: Plant response rating, Crabgrass
[13] = post-emergence, Postemergence, scale 0 to 100 (0 no effect, 100 complete control), read-out: Morningglory plant response rating
[14] = post-emergence, Postemergence, scale 0 to 100, read-out: Plant response rating, Morningglory
[15] = pre-emergence, Preemergence, scale 0 to 100, read-out: Plant response rating, Morningglory
[16] = post-emergence, Postemergence, scale 0 to 100 (0 no effect, 100 complete control), read-out: Johnsongrass plant response rating
[17] = post-emergence, Postemergence, scale 0 to 100, read-out: Plant response rating, Johnsongrass
[18] = pre-emergence, Preemergence, scale 0 to 100, read-out: Plant response rating, Johnsongrass
[19] = post-emergence, Postemergence, scale 0 to 100 (0 no effect, 100 complete control), read-out: Kochia plant response rating
[20] = pre-emergence, Preemergence, scale 0 to 100, read-out: Plant response rating, Kochia

CCOC(=O)c1nc(C2CC2)nc(N)c1Cl [Compound 4, ethyl 6-amino-5-chloro-2-cyclopropyl-4-pyrimidinecarboxylate]
plant injury at 62 g/ha [1, 7]: 100% | plant injury at 125 g/ha [1, 7]: 100% | plant injury at 250 g/ha [1, 8]: 100% | plant injury at 500 g/ha [1, 8]: 100% | plant injury at 62 g/ha ([1]; pre-emergence, Preemergence, scale 0 to 100, 0 no effect, 100 complete control, read-out: Plant response rating, Soybean): 95% | plant injury at 125 g/ha [1, 9]: 100% | plant injury at 250 g/ha [1, 9]: 100% | plant injury at 500 g/ha [1, 9]: 100% | pest or weed control at 62 g/ha [2, 10]: 70% | pest or weed control at 125 g/ha [2, 10]: 75% | pest or weed control at 250 g/ha [2, 11]: 75% | pest or weed control at 500 g/ha [2, 11]: 80% | pest or weed control at 62 g/ha ([2]; pre-emergence, Preemergence, scale 0 to 100, 0 no effect, 100 complete control, read-out: Plant response rating, Crabgrass): 40% | pest or weed control at 125 g/ha [2, 12]: 65% | pest or weed control at 250 g/ha [2, 12]: 85% | pest or weed control at 500 g/ha [2, 12]: 95% | pest or weed control at 62 g/ha ([3]; 62 g ai/ha, scale 0 to 100, 0 no effect, 100 complete control): 100% | pest or weed control at 125 g/ha ([3]; 125 g ai/ha, scale 0 to 100): 100% | pest or weed control at 250 g/ha ([3]; 250 g ai/ha, scale 0 to 100): 100% | pest or weed control at 500 g/ha ([3]; 500 g ai/ha, scale 0 to 100): 100% | pest or weed control at 62 g/ha [4, 13]: 15% | pest or weed control at 125 g/ha [4, 13]: 100% | pest or weed control at 250 g/ha [4, 14]: 100% | pest or weed control at 500 g/ha [4, 14]: 100% | pest or weed control at 62 g/ha ([4]; pre-emergence, Preemergence, scale 0 to 100, 0 no effect, 100 complete control, read-out: Plant response rating, Morningglory): 100% | pest or weed control at 125 g/ha [4, 15]: 100% | pest or weed control at 250 g/ha [4, 15]: 100% | pest or weed control at 500 g/ha [4, 15]: 100% | pest or weed control at 62 g/ha [5, 16]: 70% | pest or weed control at 125 g/ha [5, 16]: 80% | pest or weed control at 250 g/ha [5, 17]: 95% | pest or weed control at 500 g/ha [5, 17]: 95% | pest or weed control at 62 g/ha ([5]; pre-emergence, Preemergence, scale 0 to 100, 0 no effect, 100 complete control, read-out: Plant response rating, Johnsongrass): 50% | pest or weed control at 125 g/ha [5, 18]: 70% | pest or weed control at 250 g/ha [5, 18]: 90% | pest or weed control at 500 g/ha [5, 18]: 95% | pest or weed control at 62 g/ha [6, 19]: 100% | pest or weed control at 125 g/ha [6, 19]: 100% | pest or weed control at 250 g/ha ([6]; post-emergence, Postemergence, scale 0 to 100, read-out: Plant response rating, Kochia): 100% | pest or weed control at 500 g/ha ([6]; post-emergence, Postemergence, 500 g ai/ha, scale 0 to 100, read-out: Plant response rating, Kochia): 100% | pest or weed control at 62 g/ha ([6]; pre-emergence, Preemergence, scale 0 to 100, 0 no effect, 100 complete control, read-out: Plant response rating, Kochia): 95% | pest or weed control at 125 g/ha [6, 20]: 100% | pest or weed control at 250 g/ha [6, 20]: 100%

Source: patent US8802597B2, “Herbicidal pyrimidines” (E I du Pont de Nemours and Company, priority 2003, dated 2014)
